Columns and labels:
[1] = clinical; conditions: human, in vivo
Description: In vivo clearance in human

[2] = in vivo; conditions: dog
[3] = in vivo; conditions: rat
[4] = species on record: Rattus norvegicus; conditions: hepatocytes
Description: In vitro clearance in rat in 1000000 cells

[5] = species on record: Homo sapiens; conditions: hepatocytes
Description: In vitro clearance in human in 1000000 cells

[6] = species on record: Canis familiaris; conditions: dog, hepatocytes
Description: In vitro clearance in dog in 1000000 cells

[7] = in vivo; conditions: rat; remark: listed apart in the source
Description: In vivo clearance in rat.

[8] = in vivo; conditions: dog; remark: listed apart in the source
Description: In vivo clearance in dog.

[9] = clinical; conditions: human, in vivo; remark: listed apart in the source
Description: In vivo clearance in human.

Compound | clearance [1] | clearance [2] | clearance [3] | clearance [4] | clearance [5] | clearance [6] | clearance [7] | clearance [8] | clearance [9]
CC(C)(C)S(=O)(=O)C[C@@H](Cc1ccccc1)C(=O)N[C@@H](Cc1cnc[nH]1)C(=O)N[C@@H](CC1CCCCC1)[C@@H](O)[C@@H](O)C1CC1 | 19.6 mL/min/kg | 3 mL/min/kg | 119 mL/min/kg | 16.6 µL/min | 19.5 µL/min | – | – | – | –
Cc1cc(=O)n(-c2ccccc2)n1C [ANTIPYRINE] | 0.5 mL/min/kg | 4.9 mL/min/kg | 7 mL/min/kg | 0.4 µL/min | 0.1 µL/min | 1 µL/min | – | – | –
COc1ccccc1Oc1c(NS(=O)(=O)c2ccc(C(C)(C)C)cc2)nc(-c2ncccn2)nc1OCCO [BOSENTAN] | – | – | – | 1.3 µL/min | 0.2 µL/min | 0.2 µL/min | 55 mL/min/kg | 1.9 mL/min/kg | 3.7 mL/min/kg
Cn1c(=O)c2c(ncn2C)n(C)c1=O [CAFFEINE] | 2 mL/min/kg | 2.6 mL/min/kg | 13 mL/min/kg | 0.6 µL/min | 0.1 µL/min | 0.2 µL/min | – | – | –
COc1ccc([C@@H]2Sc3ccccc3N(CCN(C)C)C(=O)[C@@H]2OC(C)=O)cc1 [DILTIAZEM] | – | – | – | 43.6 µL/min | 1.9 µL/min | 2.7 µL/min | 87.2 mL/min/kg | 46.1 mL/min/kg | –
O=C1Nc2ccc(Cl)cc2C(c2ccccc2Cl)=NC1O (stereo not given) [LORAZEPAM] | 1.1 mL/min/kg | 26.1 mL/min/kg | 27.2 mL/min/kg | 3.8 µL/min | 0.3 µL/min | 18.1 µL/min | – | – | –
COCC(=O)O[C@]1(CCN(C)CCCc2nc3ccccc3[nH]2)CCc2cc(F)ccc2[C@@H]1C(C)C [MIBEFRADIL] | – | – | – | 5.4 µL/min | 0.9 µL/min | 6.2 µL/min | 94 mL/min/kg | 36 mL/min/kg | 7 mL/min/kg
Cc1ncc2n1-c1ccc(Cl)cc1C(c1ccccc1F)=NC2 [MIDAZOLAM] | – | – | – | 16.7 µL/min | 4.5 µL/min | – | 130 mL/min/kg | – | 11 mL/min/kg
C/C(=C\c1ccc(OCCN2CCOCC2)cc1)c1ccc2c(c1)C(C)(C)CCC2(C)C [MOFAROTENE] | – | – | – | 2.3 µL/min | 2 µL/min | 1 µL/min | 16 mL/min/kg | 5.8 mL/min/kg | 11 mL/min/kg
C=CCN1CC[C@]23c4c5ccc(O)c4O[C@H]2C(=O)CC[C@@]3(O)[C@H]1C5 [NALOXONE] | 25 mL/min/kg | 42.5 mL/min/kg | 48.8 mL/min/kg | 54.6 µL/min | 16.7 µL/min | 32.1 µL/min | – | – | –
COC(=O)C1=C(C#N)NC(C)=C(C(=O)OC(C)C)C1c1cccc([N+](=O)[O-])c1 (stereo not given) [NILVADIPINE] | 20 mL/min/kg | 15.3 mL/min/kg | 94 mL/min/kg | 29.7 µL/min | 13.3 µL/min | 10.9 µL/min | – | – | –
CCOC(=O)C1=C(C)NC(C)=C(C(=O)OC)C1c1cccc([N+](=O)[O-])c1 (stereo not given) [NITRENDIPINE] | 18.7 mL/min/kg | 21.7 mL/min/kg | 16.5 mL/min/kg | 24 µL/min | 12 µL/min | 8.1 µL/min | – | – | –
Cn1c(=O)c2[nH]cnc2n(C)c1=O.O [THEOPHYLLINE] | 0.6 mL/min/kg | 1.5 mL/min/kg | 2.2 mL/min/kg | 0.2 µL/min | 0.1 µL/min | 0.2 µL/min | – | – | –
Cc1ccc(C(=O)c2cc(O)c(O)c([N+](=O)[O-])c2)cc1 [TOLCAPONE] | 2.7 mL/min/kg | 3.3 mL/min/kg | 15 mL/min/kg | 2.6 µL/min | 1.2 µL/min | 1.4 µL/min | – | – | –
